Data on 17 compounds can be found in patent US11479551B2, “MTA-cooperative PRMT5 inhibitors” (Mirati Therapeutics, Inc., priority 2019, dated 2022).

Where two headings read alike, the source gives them in different places.

For assay [1], the system named is PRMT5-dependent Symmetric Di-methyl Arginine signal in HCT116 homozygous MTAP knockout cells. The assay is described as follows: SYM11 In-Cell Western, HCT116 MTAP knockout. It is filed as cell-based.
The subject of the next assay is HCT116 parental cells. The assay is described as follows: Proliferation assay (CellTiter-Glo, 10 days of treatment), HCT116 parental. In kind it is cell-based. The procedure:
(§1) Control samples were analyzed in parallel.
Briefly, on Day 0, 250 HCT116 parental or HCT116 homozygous MTAP knockout cell were seeded in 96 well plates in McCoy's 5A supplemented with 10% fetal bovine serum and pen/strep and the cells were incubated overnight at 37° C. plus 5% CO2.
The following day, cells were treated with DMSO vehicle control or a dose response of PRMT5 inhibitors and incubated at 37 C plus 5% CO2 for five days. On Day 6, the cells were trypsinized and split 1:10 into new 96-well plates with fresh medium containing the same concentration of PRMT5 inhibitor and incubated for an additional 5 days at 37° C. plus 5% CO^2.
On Day 11, the viability of the cells was measured using a CTG assay kit (CellTiter-Glo; Promega cat.no G7573) in accordance with the manufacturer's instructions. The IC50 values for each compound after 10 days of treatment were calculated using GraphPad PRISM software.
(In general: Cellular ATP, detected with luciferase, serves as a proxy for viable cell number.)

Assay [2] concerns PRMT5-dependent Symmetric Di-methyl Arginine signal in HCT116 parental cells. Kind of assay: SYM11 In-Cell Western, HCT116 parental. In kind it is cell-based. To be noted: 4 days of treatment, SYM11/DRAQ5 ratio. On the procedure: as §1
Briefly, on Day 0, 2,000 HCT116 parental or HCT116 homozygous MTAP knockout cells were seeded in 96 well plates in McCoy's 5A supplemented with 10% fetal bovine serum and pen/strep and the cells were incubated overnight at 37° C. plus 5% CO2. The following day, cells were treated with DMSO vehicle control or a dose response of PRMT5 inhibitors, and incubated at 37° C. plus 5% CO^2 for four days.
After 4 days of treatment, the cells were fixed by adding 50 μl of 4% paraformaldehyde solution to each well and the cells were incubated for 20 min at room temperature. The paraformaldehyde solution was removed, 150 μl of ice-cold methanol was added and the plate was placed −20° C. for 10 minutes. The methanol was removed, 150 μl of Odyssey Blocking buffer+0.05% Tween20 was added and the plate was incubated at room temperature with shaking for one hour.
The primary SYM11 antibody solution was removed by aspiration and the wells were washed three consecutive times with phosphate buffered saline containing 0.1% Tween-20 (PBST).
The secondary antibody solution was removed by aspiration and the wells were washed three consecutive times with PB ST.
The SYM11 signal and the DRAQ5 signal were quantified using a Li-Cor Odyssey machine reading at […], respectively. The SYM11/DRAQ5 ratio was used to calculate the inhibition of Symmetric Dimethyl Arginine as percent of DMSO control.

Assay [3] concerns HCT116 homozygous MTAP knockout cells. Kind of assay: Proliferation assay (CellTiter-Glo, 10 days of treatment), HCT116 MTAP knockout. In kind it is cell-based. The conditions noted are these: read-out: Proliferation HCT116MTAP_KO IC50. An outline of the steps:
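Cells (250/well) seeded in McCoy's 5A with 10% FBS, then treated the next day with a PRMT5 inhibitor dose response at 37 °C, 5% CO2. On day 6 they were split 1:10 into fresh medium with the same compound concentration. CellTiter-Glo viability was read on day 11 and IC50 taken after 10 days of treatment.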

The next assay deals with PRMT5/MEP50 complex (Homo sapiens (Human), UniProt O14744). Kind of assay: PRMT5:MEP50 HotSpot Assay (full-length histone H2A substrate, plus and minus MTA). In kind it is biochemical. To be noted: in the presence of 2 μM MTA. An outline of the steps: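 Radiometric filter-binding format using recombinant full-length histone H2A as substrate. After the reaction was stopped, mixtures went onto filter paper and tritiated H2A was quantified by scintillation counting.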
Sequence of PRMT5/MEP50 complex (O14744 2-637): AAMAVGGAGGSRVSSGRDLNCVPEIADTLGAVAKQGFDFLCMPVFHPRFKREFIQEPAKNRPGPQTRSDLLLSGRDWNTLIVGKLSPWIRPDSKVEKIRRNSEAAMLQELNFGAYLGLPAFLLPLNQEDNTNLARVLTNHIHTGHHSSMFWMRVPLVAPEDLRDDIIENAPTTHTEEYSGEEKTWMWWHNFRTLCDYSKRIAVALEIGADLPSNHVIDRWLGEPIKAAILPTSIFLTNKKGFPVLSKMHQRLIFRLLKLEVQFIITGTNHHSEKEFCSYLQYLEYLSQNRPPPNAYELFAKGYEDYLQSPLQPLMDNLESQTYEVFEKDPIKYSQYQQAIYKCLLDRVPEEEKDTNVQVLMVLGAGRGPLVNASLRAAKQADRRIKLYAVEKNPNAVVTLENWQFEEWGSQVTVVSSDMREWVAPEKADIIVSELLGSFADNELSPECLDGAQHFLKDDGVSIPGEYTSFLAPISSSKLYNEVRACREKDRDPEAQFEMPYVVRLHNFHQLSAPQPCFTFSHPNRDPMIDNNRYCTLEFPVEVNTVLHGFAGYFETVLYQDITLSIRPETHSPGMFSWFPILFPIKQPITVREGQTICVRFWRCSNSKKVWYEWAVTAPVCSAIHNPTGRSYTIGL
Sequence of PRMT5/MEP50 complex (Q9BQA1 2-342 partner): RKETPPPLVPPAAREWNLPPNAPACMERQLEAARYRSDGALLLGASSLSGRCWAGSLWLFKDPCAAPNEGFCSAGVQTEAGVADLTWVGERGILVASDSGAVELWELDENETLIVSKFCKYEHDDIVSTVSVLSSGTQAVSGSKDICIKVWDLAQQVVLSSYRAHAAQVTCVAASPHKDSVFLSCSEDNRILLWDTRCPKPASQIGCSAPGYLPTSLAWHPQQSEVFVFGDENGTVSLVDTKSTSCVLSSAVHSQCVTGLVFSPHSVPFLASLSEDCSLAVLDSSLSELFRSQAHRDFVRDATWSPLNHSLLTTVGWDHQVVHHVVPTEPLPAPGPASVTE

[4] abbreviates: Homo sapiens, HCT-116, 96 h, HCT116 homozygous MTAP knockout cells, 4 days of treatment, SYM11/DRAQ5 ratio, read-out: In-cell-Western (SYM11) HCT116 MTAP_KO IC50.
The mark [5] stands for this setting: HCT116 homozygous MTAP knockout cells, 4 days of treatment, SYM11/DRAQ5 ratio, read-out: In-cell-Western (SYM11) HCT116 MTAP_KO IC50.

Regarding `Cc1cc(-c2c(-c3ccc4c(=O)[nH]nc(CN)c4c3)cnn2C)c(C#N)c2ccccc12` [Example 12-10, 2-(4-(4-(aminomethyl)-1-oxo-1,2-dihydrophthalazin-6-yl)-1-methyl-1H-pyrazol-5-yl)-4-methyl-1-naphthonitrile], the IC50 in assay [1] (setting [4]) is 0.003 µM; with HCT116 parental cells (Homo sapiens, HCT-116, 240 h), 1.33 µM; in assay [2] (Homo sapiens, HCT-116, 96 h), greater than 1 µM; in assay [3] (Homo sapiens, HCT-116, 240 h) it was 0.038 µM.

As for `CC(N)c1n[nH]c(=O)c2ccc(-c3cnn(C)c3-c3ccc4ccccc4c3C#N)cc12` (single isomer, unassigned) [Example 9-5, 2-[4-[4-(1-aminoethyl)-1-oxo-2H-phthalazin-6-yl]-2-methyl-pyrazol-3-yl]naphthalene-1-carbonitrile], the IC50 was 0.042 µM in assay [1] (setting [5]); 6.44 µM with HCT116 parental cells (Homo sapiens, HCT-116, 240 h); greater than 1 µM in assay [2] (Homo sapiens, HCT-116, 96 h); 0.125 µM in assay [3].

On to `Cn1ncc(-c2cc(Cl)c3c(=O)[nH]nc(CN)c3c2)c1-c1cc(Cl)cc(OC2CC2)c1C#N` [Example 10-16, 2-(4-(4-(aminomethyl)-8-chloro-1-oxo-1,2-dihydrophthalazin-6-yl)-1-methyl-1H-pyrazol-5-yl)-4-chloro-6-cyclopropoxybenzonitrile], for which the IC50 in assay [1] (setting [4]) stood at 0.048 µM; with HCT116 parental cells (Homo sapiens, HCT-116, 240 h), 1.76 µM; in assay [2] (Homo sapiens, HCT-116, 96 h), 0.086 µM; in assay [3] (Homo sapiens, HCT-116, 240 h), 0.086 µM.

In the case of `Cn1ncc(-c2ccc3c(=O)[nH]nc(CN)c3c2)c1-c1ccc2ccc(F)cc2c1C#N` [Example 4-217, 2-(4-(4-(aminomethyl)-1-oxo-1,2-dihydrophthalazin-6-yl)-1-methyl-1H-pyrazol-5-yl)-7-fluoro-1-naphthonitrile], the IC50 in assay [1] (setting [4]) is 0.087 µM; with HCT116 parental cells (Homo sapiens, HCT-116, 240 h), 2.15 µM; in assay [2] (Homo sapiens, HCT-116, 96 h), greater than 1 µM; in assay [3] (Homo sapiens, HCT-116, 240 h), 0.096 µM.

On to `Cn1ncc(-c2ccc3c(=O)[nH]nc(CN)c3c2)c1-c1cc2ccccc2c(OC2CC2)c1C#N` [Example 4-231, 3-(4-(4-(aminomethyl)-1-oxo-1,2-dihydrophthalazin-6-yl)-1-methyl-1H-pyrazol-5-yl)-1-cyclopropoxy-2-naphthonitrile], for which the IC50 in assay [1] (setting [4]) is 0.037 µM; in the assay on HCT116 parental cells (Homo sapiens, HCT-116, 240 h), 3.12 µM; in assay [2] (Homo sapiens, HCT-116, 96 h), greater than 1 µM; in assay [3] (Homo sapiens, HCT-116, 240 h), 0.05 µM.

As to `Cn1ncc(-c2ccc3c(=O)[nH]nc(CN)c3c2)c1-c1c(F)cc2ccccc2c1C#N` (single isomer, unassigned) [Example 16-1], the IC50 in assay [1] (setting [5]) was determined as 0.002 µM; in the assay with HCT116 parental cells, 0.757 µM; in assay [2], 0.316 µM; on PRMT5/MEP50 complex (read-out: IC50 + 2 μM MTA), 0.038 µM.

For `Cn1ncc(-c2ccc3c(=O)[nH]nc(CN)c3c2)c1-c1c(Cl)cc2ccccc2c1C#N` [Example 4-215, 2-(4-(4-(aminomethyl)-1-oxo-1,2-dihydrophthalazin-6-yl)-1-methyl-1H-pyrazol-5-yl)-3-chloro-1-naphthonitrile], the IC50 in assay [1] (setting [4]) is 0.034 µM; in the assay on HCT116 parental cells (Homo sapiens, HCT-116, 240 h) it was 3.54 µM; in assay [2] (Homo sapiens, HCT-116, 96 h) it was greater than 1 µM; in assay [3] (Homo sapiens, HCT-116, 240 h), 0.081 µM.

With `Cn1ncc(-c2ccc3c(=O)[nH]nc(CN)c3c2)c1-c1c(C#N)cc2ccccc2c1Cl` [Example 4-229, 3-(4-(4-(aminomethyl)-1-oxo-1,2-dihydrophthalazin-6-yl)-1-methyl-1H-pyrazol-5-yl)-4-chloro-2-naphthonitrile], the IC50 in assay [1] (setting [4]) was 0.011 µM; with HCT116 parental cells (Homo sapiens, HCT-116, 240 h) it was 2.86 µM; in assay [2] (Homo sapiens, HCT-116, 96 h), greater than 1 µM; in assay [3] (Homo sapiens, HCT-116, 240 h), 0.059 µM.

In the case of `COc1cccc2c(C#N)c(-c3c(-c4ccc5c(=O)[nH]nc(CN)c5c4)cnn3C)ccc12` [Example 4-204, 2-(4-(4-(aminomethyl)-1-oxo-1,2-dihydrophthalazin-6-yl)-1-methyl-1H-pyrazol-5-yl)-5-methoxy-1-naphthonitrile], the IC50 was 0.012 µM in assay [1] (setting [4]); 1.83 µM with HCT116 parental cells (Homo sapiens, HCT-116, 240 h); greater than 1 µM in assay [2] (Homo sapiens, HCT-116, 96 h); 0.052 µM in assay [3] (Homo sapiens, HCT-116, 240 h).

Take `Cn1ncc(-c2ccc3c(=O)[nH]nc(CN)c3c2)c1-c1ccc2c(F)cccc2c1C#N` [Example 4-223, 2-(4-(4-(aminomethyl)-1-oxo-1,2-dihydrophthalazin-6-yl)-1-methyl-1H-pyrazol-5-yl)-5-fluoro-1-naphthonitrile]: the IC50 amounted to 0.012 µM in assay [1] (setting [4]); 7.81 µM with HCT116 parental cells (Homo sapiens, HCT-116, 240 h); 0.756 µM in assay [2] (Homo sapiens, HCT-116, 96 h); 0.075 µM in assay [3] (Homo sapiens, HCT-116, 240 h).

As for `CCOc1cccc(-c2c(-c3cc(C)c4c(=O)[nH]nc(CN)c4c3)cnn2C)c1C#N` [Example 10-9, 2-(4-(4-(aminomethyl)-8-methyl-1-oxo-1,2-dihydrophthalazin-6-yl)-1-methyl-1H-pyrazol-5-yl)-6-ethoxybenzonitrile], the IC50 in assay [1] (setting [4]) was determined as 0.008 µM; in the assay on HCT116 parental cells (Homo sapiens, HCT-116, 240 h), 9.82 µM; on PRMT5/MEP50 complex (IC50 + 2 μM MTA), 1.93 µM; in assay [3] (Homo sapiens, HCT-116, 240 h) it was 0.489 µM.

As for `Cn1ncc(-c2ccc3c(=O)[nH]nc(CN)c3c2)c1-c1ccc2ncc(Cl)cc2c1C#N` [Example 4-225, 6-[4-[4-(aminomethyl)-1-oxo-2H-phthalazin-6-yl]-2-methyl-pyrazol-3-yl]-3-chloro-quinoline-5-carbonitrile], the IC50 in assay [1] (setting [4]) was 0.017 µM; in the assay with HCT116 parental cells (Homo sapiens, HCT-116, 240 h) it was 5.17 µM; in assay [2] (Homo sapiens, HCT-116, 96 h) it was greater than 1 µM; in assay [3] (Homo sapiens, HCT-116, 240 h), 0.084 µM.

With `Cn1ncc(-c2ccc3c(=O)[nH]nc(CN)c3c2)c1-c1cc(C(F)(F)F)cc(OC2CC2)c1C#N` [Example 4-209, 2-(4-(4-(aminomethyl)-1-oxo-1,2-dihydrophthalazin-6-yl)-1-methyl-1H-pyrazol-5-yl)-6-cyclopropoxy-4-(trifluoromethyl)benzonitrile], the IC50 was 0.01 µM in assay [1] (setting [4]); 4.67 µM in the assay on HCT116 parental cells (Homo sapiens, HCT-116, 240 h); greater than 1 µM in assay [2] (Homo sapiens, HCT-116, 96 h); 0.059 µM in assay [3] (Homo sapiens, HCT-116, 240 h).

As for `Cn1ncc(-c2ccc3c(=O)[nH]nc(CN)c3c2)c1-c1cc(C#N)c2ccccc2c1F` [Example 4-210, 3-(4-(4-(aminomethyl)-1-oxo-1,2-dihydrophthalazin-6-yl)-1-methyl-1H-pyrazol-5-yl)-4-fluoro-1-naphthonitrile], the IC50 in assay [1] (setting [4]) was 0.008 µM; in the assay with HCT116 parental cells (Homo sapiens, HCT-116, 240 h), 1.36 µM; in assay [2] (Homo sapiens, HCT-116, 96 h) it was greater than 1 µM; in assay [3] (Homo sapiens, HCT-116, 240 h) it was 0.416 µM.

Turning to `CCc1c(OC)ccc(-c2c(-c3ccc4c(=O)[nH]nc(CN)c4c3)cnn2C)c1C#N` [Example 4-201, 2-(4-(4-(aminomethyl)-1-oxo-1,2-dihydrophthalazin-6-yl)-1-methyl-1H-pyrazol-5-yl)-6-ethyl-5-methoxybenzonitrile], the IC50 is 0.016 µM in assay [1] (setting [4]); greater than 10 µM in the assay with HCT116 parental cells (Homo sapiens, HCT-116, 240 h); 0.948 µM at PRMT5/MEP50 complex (IC50 + 2 μM MTA); 0.155 µM in assay [3] (Homo sapiens, HCT-116, 240 h).

As for `Cn1ncc(-c2ccc3c(=O)[nH]nc(CN)c3c2)c1-c1c(F)c(Cl)cc(OC2CC2)c1C#N` [Example 4-230, 2-(4-(4-(aminomethyl)-1-oxo-1,2-dihydrophthalazin-6-yl)-1-methyl-1H-pyrazol-5-yl)-4-chloro-6-cyclopropoxy-3-fluorobenzonitrile], the IC50 in assay [1] (Homo sapiens, HCT-116, 96 h, read-out: In-cell-Western (SYM11) HCT116 MTAP_KO IC50, HCT116 homozygous MTAP knockout cells, 4 days of treatment, SYM11/DRAQ5 ratio) is 0.006 µM; in the assay on HCT116 parental cells (Homo sapiens, HCT-116, 240 h), 1.89 µM; in assay [2] (Homo sapiens, HCT-116, 96 h) it was greater than 1 µM.

As to `CCc1c(Cl)ccc(-c2c(-c3ccc4c(=O)[nH]nc(CN)c4c3)cnn2C)c1C#N` [Example 4-199, 6-(4-(4-(aminomethyl)-1-oxo-1,2-dihydrophthalazin-6-yl)-1-methyl-1H-pyrazol-5-yl)-3-chloro-2-ethylbenzonitrile], the IC50 in assay [1] (setting [4]) amounted to 0.002 µM; with HCT116 parental cells (Homo sapiens, HCT-116, 240 h), 8.85 µM; at PRMT5/MEP50 complex (IC50 + 2 μM MTA) it was 0.276 µM; in assay [3] (Homo sapiens, HCT-116, 240 h), 0.12 µM.
